From patent publication US11065616B2, “Methods of making microfluidic devices” (KING ABDULLAH UNIVERSITY OF SCIENCE AND TECHNOLOGY, priority 2015, dated 2021)

Test system: Hela cells
Test: Cytotoxicity of Doxorubicin concentrations generated by the microfluidic gradient generator (CCK-8)
Type: cell-based, Human
Conditions: gradient 100-0 μg/ml DOX at the outlet ports, 24 h incubation, surface modified channels
Description: Hela cells were cultured in EMEM media supplemented with 10% fetal bovine serum (FBS) and 1% penicillin-streptomycin at 37° C. in a 5% CO2 humidified atmosphere. After cell detachment, the cell suspension was centrifuged, the pallet was collected, and cells were counted for further plating. Hela cells were seeded in 96 well plates at a density of 5×10^3/well. Alter 24 h, cells were treated with five different concentrations of the anticancer drug Doxorubicin (DOX) generated by the microfluidic gradient generator at a flow rate of 8.5 μl/min. The incubation of cells with test samples lasts for 24 h at 37° C. Then, the culture medium was discarded, and 100 μL of CCK8 solution in MEM media were added to each well and incubated for 4 h in darkness. The absorbance values were measured at […] using the xMark™ microplate absorbance spectrophotometer.
Two types of 3D printer resins (1) FormLabs clear and (2) Spot-Elastic were used to build microfluidic devices. The media for cell cultures were injected by passing the EMEM media through the reported microfluidic gradient generator, Both the inlets were fed with media for the first experiment. […] Doxorubicin was introduced to the cell culture after surface modification, and only one of the inlets was fed with Doxorubicin incorporated EMEM media and the other was fed with normal (Doxorubicin-free) EMEM media. […]

COc1cccc2c1C(=O)c1c(O)c3c(c(O)c1C2=O)C[C@@](O)(C(=O)CO)C[C@@H]3O[C@H]1C[C@H](N)[C@H](O)[C@H](C)O1 [DOX, Doxorubicin]
cell viability versus DOX concentration (in words): higher viability with a decrease in concentration of DOX
